Measured values reported in ChEMBL document CHEMBL5252631, “A pharmacophore-based approach to demonstrating the scope of alcohol dehydrogenases” (Bioorg Med Chem, 2023).

Legend:
[1] = Substrate activity at ADH101 (unknown origin) assessed as specific enzyme activity using NADH as cofactor at 2.5 to 10 mM measured for 30 mins in presence of 20% hexane-Tris HCL buffer by UV-Vis spectroscopy analysis; conditions: Homo sapiens, dose 2.5-10 mM
[2] = Substrate activity at ADH105 (unknown origin) assessed as specific enzyme activity using NADH as cofactor at 2.5 to 10 mM measured for 30 mins in presence of 20% hexane-Tris HCL buffer by UV-Vis spectroscopy analysis; conditions: dose 2.5-10 mM
[3] = Substrate activity at ADH150 (unknown origin) assessed as specific enzyme activity using NADPH as cofactor at 2.5 to 10 mM measured for 30 mins in presence of Tris HCL buffer by UV-Vis spectroscopy analysis; conditions: Homo sapiens, dose 2.5-10 mM
[4] = Substrate activity at ADH19 (unknown origin) assessed as specific enzyme activity using NADPH as cofactor at 2.5 to 10 mM measured for 30 mins in presence of Tris HCL buffer by UV-Vis spectroscopy analysis; conditions: Homo sapiens, dose 2.5-10 mM
[5] = Substrate activity at ADH61 (unknown origin) assessed as specific enzyme activity using NADPH as cofactor at 2.5 to 10 mM measured for 30 mins in presence of Tris HCL buffer by UV-Vis spectroscopy analysis; conditions: Homo sapiens, dose 2.5-10 mM
[6] = Substrate activity at ADH20 (unknown origin) assessed as specific enzyme activity using NADPH as cofactor at 2.5 to 10 mM measured for 30 mins in presence of Tris HCL buffer by UV-Vis spectroscopy analysis; conditions: Homo sapiens, dose 2.5-10 mM
[7] = Substrate activity at ADH105 (unknown origin) assessed as specific enzyme activity using NADH as cofactor at 2.5 to 10 mM measured for 30 mins in presence of Tris HCL buffer by UV-Vis spectroscopy analysis; conditions: Homo sapiens, dose 2.5-10 mM
[8] = Substrate activity at ADH101 (unknown origin) assessed as specific enzyme activity using NADH as cofactor at 2.5 to 10 mM measured for 30 mins in presence of Tris HCL buffer by UV-Vis spectroscopy analysis; conditions: dose 2.5-10 mM

SMILES	Activity [1] [nmol/min/mg]	Activity [2] [nmol/min/mg]	Activity [3] [nmol/min/mg]	Activity [4] [nmol/min/mg]	Activity [5] [nmol/min/mg]	Activity [6] [nmol/min/mg]	Activity [7] [nmol/min/mg]	Activity [8] [nmol/min/mg]
CC(=O)c1cnccn1	53.2	185	–	–	–	–	–	–
CC(=O)c1cc[nH]n1	5.6	20.7	11.8	10.3	10.7	24.1	–	–
COc1ccc(C(C)=O)cc1OC	59.8	220	–	–	–	–	–	–
CC(=O)c1ccccn1	35.5	60.3	–	–	–	–	70.4	22.2
CC(=O)c1cc(C(F)(F)F)cc(C(F)(F)F)c1	17.4	57.3	–	–	–	–	29.6	4.51
COc1cccc(C(C)=O)c1	13.8	397	–	–	–	–	–	–
CC(=O)Cc1ccccc1	22.2	239	–	–	–	–	274	5.98
COc1cc(OC)cc(C(C)=O)c1	59.2	363	–	–	–	–	–	–
CC(=O)c1ccc2c(c1)OCO2	34.2	189	–	–	–	–	70.1	17.7
CC(=O)c1ccc(C[C@H](N)C(=O)O)cc1	10.2	62.2	33.7	7.76	123	55.7	–	–
CC(=O)c1ccc(Br)nc1	33.2	269	–	–	–	–	–	–
CC(=O)c1cccc(C#N)c1	57.4	173	–	–	–	–	–	–
COc1ccc(C(C)=O)cc1	24.6	221	–	–	–	–	–	–
CC(=O)c1ccc(Br)c(F)c1	103	242	–	–	–	–	–	46.3
CC(=O)c1ccc([N+](=O)[O-])cc1	130	593	–	–	–	–	–	99.9
CC(=O)c1ccc(I)cc1	51.3	117	–	–	–	–	–	–
CC(=O)c1cnc2ccccc2c1	13.7	229	–	–	–	–	–	–
CC(C)(C)NCC(=O)c1cc(Cl)c(N)c(Cl)c1	–	34.6	6.55	10.4	29	18.8	–	–
O=C(c1ccccc1)c1ccccc1	73.9	14.3	69.9	–	–	41.1	12.8	35.7
CC(=O)c1ccc(Br)cc1	73.1	158	–	–	–	–	56.1	38.1

SMILES	Activity [1] [nmol/min/mg]	Activity [2] [nmol/min/mg]	Activity [3] [nmol/min/mg]	Activity [4] [nmol/min/mg]	Activity [5] [nmol/min/mg]	Activity [6] [nmol/min/mg]	Activity [7] [nmol/min/mg]	Activity [8] [nmol/min/mg]
CC(=O)c1cncnc1	45.2	50.5	–	–	–	–	–	–
CC(=O)c1ccc2ccccc2c1	37	54	–	–	–	–	–	7.68
CC(=O)c1ccc(F)cc1	22.9	122	–	–	–	–	86.4	26.4
CC(=O)c1cccc(Br)c1	12.2	142	–	–	–	–	1.9	19.9
COc1ccc2c(c1)CCCC2=O	–	36	7.83	14.3	56.4	31.3	9	6.9
COc1cc(C(C)=O)cc(OC)c1OC	–	89.9	–	–	–	–	154	11.7
CCc1ccc(OC)c(C(C)=O)c1	52.9	64	–	–	–	–	14.1	49.8
CC(=O)c1ccc(N)cc1	43.9	80.4	–	–	–	–	21.3	5.03
CC(=O)c1ccc(Br)cc1O	10	27.2	–	–	–	–	–	112
CC(=O)C1CC1	82.8	98.2	–	–	–	–	–	–
CC(=O)c1ccccc1Br	38	39.5	–	–	–	–	6.37	75.1
CC(=O)c1ccc(Cl)nc1	62.5	92	–	–	–	–	371	32.2
CC(=O)c1cccnc1	34	163	–	–	–	–	121	9.45
CC(=O)c1ccc(B2OC(C)(C)C(C)(C)O2)cc1	465	87	–	–	–	–	–	–
O=C(c1ccccc1)C(F)(F)F	46.2	29.4	–	–	–	–	19.1	9.22
CC(=O)c1ccc(O)cc1	–	31.5	–	12.8	12.7	–	39.5	–
CCOc1ccc(C(C)=O)cc1	19.9	196	–	–	–	–	81.1	4.37
CCCCCCCCC(C)=O	25.7	37.1	–	–	–	–	8.95	39.5
CC(=O)c1ccccc1O	–	–	–	–	–	–	23.1	11.3
CC(=O)CCc1ccccc1	95.7	364	–	–	–	–	–	109

SMILES	Activity [1] [nmol/min/mg]	Activity [2] [nmol/min/mg]	Activity [3] [nmol/min/mg]	Activity [4] [nmol/min/mg]	Activity [5] [nmol/min/mg]	Activity [6] [nmol/min/mg]	Activity [7] [nmol/min/mg]	Activity [8] [nmol/min/mg]
CC(=O)/C=C/c1ccccc1	67.2	62.1	–	–	–	–	6.97	60.7
CC(=O)c1ccc(F)nc1	51	137	–	–	–	–	182	24.7
COc1ccc2[nH]cc(CCNC(C)=O)c2c1	–	21.7	–	–	–	–	–	–
O=C1CN2CCC1CC2	85.3	23.4	–	–	–	–	13	–
O=C(CBr)c1ccccc1	89.2	337	–	–	–	–	18.7	44.6
CC(=O)C1CCCC1	123	218	–	–	–	–	–	–
CC(=O)c1nccn1C	14.7	20.7	–	–	–	–	–	–
O=C(CCl)c1ccc(F)c(F)c1	87.1	112	–	–	–	–	131	83.1
CC(=O)c1cccc(O)c1	14.8	157	–	–	–	–	82.4	4.76
CNCC(=O)c1cccc(O)c1	12.4	17.4	38.6	6.78	–	67.2	20.8	–
CC(=O)c1ccc(Br)cc1F	57.7	366	–	–	–	–	–	15.9
CC(=O)c1cc(F)ccc1O	42.8	–	–	–	–	–	–	–
COc1ccccc1C(C)=O	–	83	–	–	–	–	13.4	2.46
O=c1[nH]c(=O)c2nc[nH]c2[nH]1	–	15.9	–	–	–	–	9.28	319
CC(=O)C1CCCCC1	52.3	112	–	–	–	–	233	167
CC(=O)c1ccc(NS(C)(=O)=O)cc1	–	203	–	–	–	–	–	–
CC(=O)c1ccccc1	54.1	99.1	–	–	–	–	142	43.1
CC(=O)c1ccc(C(F)(F)F)nc1	80.9	210	–	–	–	–	–	–
